Data set [1] concerns epithelioma papulosum cyprini cells (EPC). The procedure: In vitro experiments in epithelioma papulosum cyprini cells (EPC) were performed to verify the mechanisin of action of the “suicide vectors”.
Cell transfection assays were made using Lipofectamine Plus following the instructions of the manufacturer (Gibco, BRL, Gaithersburg, Md.). After 48 hours, the cells were treated with 100 μM ZnCl2, an inducer of the MT promoter.
(100 μM). Cells transfected with the different constructs were left uninduced (a,d) or were treated with […] of ZnCl2 at 48 h. post-transfection (b,c,e,f).

For a further data set, the system named is rainbow trout fry. As to conditions: for mortality of rainbow trout fry: 48 hours, fry 0.8 g. The procedure: Three different concentrations of ZnCl2 (1 μM, 10 μM, 100 μM) were assayed and analyzed for their toxic effects in rainbow trout fry (0.8 g).
Different concentrations of ZnCl2(10 mM, 5 mM, 2.5 mM, 1 mM, 100 μM, […] and 1 μM) were assayed and observed for their toxic effect in rainbow trout. […] After 30 days post-challenge, the correct dose (10 μM ZnCl2) is added to 90 fish per treatment. After 48 hours, PCR analysis with IHNV G and M specific primers is performed to verify that the DNA vaccines have been totally eliminated from muscle tissue of the vaccinated and Zinc exposed fish.

The subject of a further data set is EPC cells. As to conditions: 100, 150, or 200 μM.
Another data set relates to fish cells. Briefly: Zinc induction of metallothionein promoter in fish cells (Example 14). It is filed as cell-based. The note with it: 100 μM zinc dose.
Data set [2] has as its system rainbow trout MT promoter. Briefly: pMT-CAT reporter in medaka hatchlings with and without zinc (Example 14). As to conditions: medaka injected with pMT-CAT plasmid, stimulated with zinc vs unstimulated. It is filed as in vivo. The protocol:
The activity of the rainbow trout MT promoter was examined by microinjecting plasmids containing pMT operably linked to the CAT reporter into fertilized eggs of medaka, as described in Inoue, et al., Supra. CAT activities were determined in hatchlings with and without stimulation with zinc. Only small trace levels of CAT activity were detected in unstimulated fish, but CAT activity increased in fish stimulated with zinc.

Where two headings read alike, the source gives them in different places.

Method for EPC cells: Persistence of a DNA suicide vector (constructed according to Example 21) in transfected cells was assessed by a reverse transcriptase reaction coupled to PCR (RT-PCR). […] Approximately 24 hours after transfection, the cells were treated with non-toxic concentrations of ZnCl2 (100, 150, or 200 μM). Control cells were left untreated.
At 48 hours after the ZnCl2 addition, total RNA was isolated and an RT-PCR assay using IHNV-G specific primers (5′-[sequence]-3′ provided by SEQ. ID. NO: 2 and 5′-[sequence] [sequence]-3′ provided by SEQ. ID. NO: 3) was performed. PCR conditions were: 94° C. 30 sec, 55° C. 1 min and 72° C. 2 min.

Regarding `[Cl-].[Cl-].[Zn+2]` [ZnCl2], in data set [1], the “effect of ZnCl2 on untransfected EPC control cells” value is on record as “not obviously affected”. Further, the “mortality of rainbow trout fry” value in the data set on rainbow trout fry (1 μM and 10 μM in water) was “no mortalities”; with rainbow trout fry (100 μM in water), “all fish immersed in 100 μM ZnCl2 had died”. Moreover, the “concentrations toxic for rainbow trout fry” value in the data set with rainbow trout fry (fry 1 g) was “higher than 10 μM”. Also, the “toxicity of ZnCl2 to transfected EPC cells” value with EPC cells is “non-toxic”.
With `[Zn]` [zinc], in the data set with fish cells, the “toxicity in fish cells” value is “without toxicity”. Besides, the “nucleic acid expression mediated by the metallothionein promoter” value in the data set on fish cells (fish cells) is “induces”. Also, the “CAT activity in hatchlings” value in data set [2] is recorded as “increased”.

The values are drawn from patent US20040181820A1, “Nucleic acids for transforming fish cells and methods for their use” (priority 2001, published 2004).
